Measurements taken from patent US10829798B2, “DNA-linked enzyme-coupled assays” (THE REGENTS OF THE UNIVERSITY OF CALIFORNIA, priority 2014, dated 2020).

Experiments:
OleD [1] = target: T1, OleD (Streptomyces antibioticus, UniProt Q53685, P55A/R82V/R83E/T84P); assay: qPCR DLEnCA, cell-free transcription/translation-derived OleD; assay type: biochemical; conditions: OleD DNA 5 nM, UDP-Glc 2 μM, probe 0.2 nM; for recovery of intact probe DNA: chemical 1 mM, low recovery = substrate glucosylated; for significant loss in protection of the DNA probe: flavone 1 mM
T1 construct: made in house; host or cells: PURExpress In Vitro Protein Synthesis Kit (NEB E6800L), cell-free transcription/translation, linear DNA with T7 promoter
Experimental: (§1) FIG. 4A-FIG. 4D. qPCR DLEnCA and substrate specificity studies. A. Chemicals used as substrates in subsequent assays: (i) known substrates of OleD; (ii) flavone library; (iii) known substrates of GT05 (UGT72B1 (Q9M156)) and GT06 (UGT89B1 (AT1 G73880)). B. DNA encoding OleD (5 nM) was incubated in a cell-free transcription/translation system for 3 hours at 37° C., followed by the addition of chemical (1 mM) and UDP-Glc (2 μM). After a subsequent incubation of 3 hours, TbGT and probe (0.2 nM) were added. After probe purification and MfeI digestion, probe integrity was identified using qPCR. Percent recovery of probe is reported (n=8; error bars=standard error). C. DNA encoding OleD (5 nM) was incubated for 3 hours at 37° C. in a cell-free transcription/translation system, followed by the addition of flavone (1 mM) and UDP-Glc (2 μM). After a subsequent incubation of 3 hours, TbGT and probe (0.2 nM) were added. After probe purification and MfeI addition, probe integrity was identified using qPCR. Percent recovery of probe is reported (n=8; error bars=standard error). D. DNA encoding OleD, GT05, or GT06 (5 nM) were incubated for 3 hours at 37° C. in a cell-free transcription/translation system, followed by the addition of chemical (1 mM) and UDP-Glc (2 μM). After a subsequent incubation of 3 hours, TbGT and probe (0.2 nM) were added. After probe purification and MfeI digestion, probe integrity was identified using qPCR. Percent recovery of probe is reported as a heat map (n=8) (specific recovery figures and percent error can be found in FIG. 16). *=p<0.05 vs. no chemical control.
PCR tubes were used for most reactions. All incubations were performed at 37° C. Assays were initiated upon the addition of linear DNA (5 nM final concentration) to 4 μl PURExpress Solution A and 3 μl PURExpress Solution B. Samples were incubated at 37° C. for 3 hours prior to addition of UDP-Glucose and chemical (1 mM final concentration) in DMSO. Samples were incubated for an additional 3 hours prior to addition of 1 unit T4 Phage β-glucosyltransferase containing 0.2 nM probe. Samples were incubated an additional 3 hours before DNA was purified using the Zymo DNA Clean and Concentrator Kit. Samples were digested overnight with MfeI prior to analysis. Concentration of intact DNA probe was identified using the iQ SYBR Green Supermix (1708880) with probe DNA as standards. qPCR was carried out on the Bio-Rad iQ5 Multicolor Real-Time PCR Detection System using primers P13 and P14 with the following temperatures; 94° C. 30 seconds followed by 40 cycles of 94° C. 10 seconds and 55° C. for 30 seconds. All results were compared to uncut probe DNA that had been carried through the process as negative controls (considered full recovery of probe).
The second DLEnCA workflow developed involved qPCR as a final readout (qPCR DLEnCA, FIG. 1—qPCR workflow). A linear fragment of DNA was modified to contain 5-hm-cytosines throughout. To determine a threshold for probe protection under conditions amenable to the qPCR DLEnCA workflow, UDP-Glc was titrated into mixtures of the cell-free transcription/translation system containing 5-hm-cytosine-modified DNA probe (0.2 nM probe DNA containing 0.1 μM modified 5-hm-cytosines) and TbGT. After digestion with the restriction enzyme MfeI, the amount of intact DNA probe was determined using qPCR (FIG. 3C). […] A threshold for protection was identified at a 20:1 molar ratio of UDP-Glc to total 5-hm-cytosine in probe DNA; this UDP-Glc amount was used as the starting concentration of UDP-Glc for all qPCR experiments. To test the feasibility of qPCR DLEnCA, OleD was again tested upon the substrate kaempferol (FIG. 3D), using DNA encoding a promoter and OleD as starting material. As expected, when all components of the assay were present, 27% of intact probe DNA was recovered. […]

OleD [2] = conditions: Williams 2007; Choi 2012; Yang 2005; cited from earlier work
OleD [3] = target: T1, OleD; assay: LCMS analysis of OleD-catalyzed glucosylation in cell-free reactions; assay type: biochemical; conditions: equal-molar chemical and UDP-glucose, PURExpress, 3 hours at 37° C.
Text: Determination of glucosylation was accomplished by means of an LCMS system consisting of an Agilent Technologies 1200 series HPLC with an Agilent Technologies 6520 Accurate Mass qTOF LC/MS. An Eclipse Plus C18 (4.6 mm×100 mm i.d., 3.5-μm packing, Agilent Technologies) reverse-phase column with a guard Zorbax Eclipse Plus C18 column ([…], 5 μm packing, Agilent Technologies) was used for separating the samples. Water+0.1% Formic Acid and Acetonitrile+0.1% Formic Acid were used as mobile phases at a flow rate of 500 μl/min. The elution gradient water/acetonitrile ratio) was ramped as follows: 98:2 (v/v) (0-2 min), 98:2-5:95 (v/v) linearly (2-17 min), 5:95 (v/v) (17-27 min), and 5:95-98-2 (v/v) (27-28 min). Full scanning mode (50-750 m/z) was used for data acquisition in a positive-ion mode, and the operation parameters were as follows: ESI probe capillary voltage, +3.5 kV with a scan rate of 1.01 scans/second. The nebulizer gas flow rate was 7 L/min. During the analysis two references (121.0509 m/z (C5H4N4) and 922.0098 m/z (C18H18O6N3P3F24)) were continuously measured to allow constant mass correction.
Samples were prepared directly from cell-free reactions. Equal-molar amounts of chemical and UDP-glucose were incubated with DNA encoding the glucosyltransferase of interest or water in PURExpress for 3 hours at 37° C. […]

GT05 (UGT72B1 (Q9M156)) = target: T2, GT05 (UGT72B1 (Q9M156)) (Arabidopsis thaliana, UniProt Q9M156); assay: qPCR DLEnCA, cell-free transcription/translation-derived GT05; assay type: biochemical; conditions: GT05 DNA 5 nM, chemical 1 mM, UDP-Glc 2 μM, probe 0.2 nM; low recovery = substrate glucosylated
T2 construct: made in house; host or cells: PURExpress In Vitro Protein Synthesis Kit (NEB E6800L), cell-free transcription/translation, linear DNA amplified from pET15b construct
T2 sequence (Q9M156 1-480): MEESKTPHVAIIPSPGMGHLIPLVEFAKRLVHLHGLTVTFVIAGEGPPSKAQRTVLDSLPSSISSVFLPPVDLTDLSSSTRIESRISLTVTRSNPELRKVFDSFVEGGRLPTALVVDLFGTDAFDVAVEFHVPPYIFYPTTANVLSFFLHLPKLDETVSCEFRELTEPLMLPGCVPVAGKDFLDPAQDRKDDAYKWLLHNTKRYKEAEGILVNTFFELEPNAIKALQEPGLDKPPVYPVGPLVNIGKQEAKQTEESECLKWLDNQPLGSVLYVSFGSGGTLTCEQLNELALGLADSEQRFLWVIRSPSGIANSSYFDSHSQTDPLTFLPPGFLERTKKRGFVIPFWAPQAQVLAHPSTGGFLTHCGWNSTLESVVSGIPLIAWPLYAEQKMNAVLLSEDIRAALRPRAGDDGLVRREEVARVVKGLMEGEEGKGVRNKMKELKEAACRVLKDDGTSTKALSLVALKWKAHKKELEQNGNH
Experimental: as §1
PCR tubes were used for most reactions. All incubations were performed at 37° C. Assays were initiated upon the addition of linear DNA (5 nM final concentration) to 4 μl PURExpress Solution A and 3 μl PURExpress Solution B. Samples were incubated at 37° C. for 3 hours prior to addition of UDP-Glucose and chemical (1 mM final concentration) in DMSO. Samples were incubated for an additional 3 hours prior to addition of 1 unit T4 Phage β-glucosyltransferase containing 0.2 nM probe. […]

[4] = target: T3, GT06 (UGT89B1 (AT1G73880)) (Arabidopsis thaliana, UniProt Q9C9B0); assay: qPCR DLEnCA, cell-free transcription/translation-derived GT06; assay type: biochemical; conditions: GT06 DNA 5 nM, chemical 1 mM, UDP-Glc 2 μM, probe 0.2 nM; low recovery = substrate glucosylated
T3 sequence (Q9C9B0 1-473): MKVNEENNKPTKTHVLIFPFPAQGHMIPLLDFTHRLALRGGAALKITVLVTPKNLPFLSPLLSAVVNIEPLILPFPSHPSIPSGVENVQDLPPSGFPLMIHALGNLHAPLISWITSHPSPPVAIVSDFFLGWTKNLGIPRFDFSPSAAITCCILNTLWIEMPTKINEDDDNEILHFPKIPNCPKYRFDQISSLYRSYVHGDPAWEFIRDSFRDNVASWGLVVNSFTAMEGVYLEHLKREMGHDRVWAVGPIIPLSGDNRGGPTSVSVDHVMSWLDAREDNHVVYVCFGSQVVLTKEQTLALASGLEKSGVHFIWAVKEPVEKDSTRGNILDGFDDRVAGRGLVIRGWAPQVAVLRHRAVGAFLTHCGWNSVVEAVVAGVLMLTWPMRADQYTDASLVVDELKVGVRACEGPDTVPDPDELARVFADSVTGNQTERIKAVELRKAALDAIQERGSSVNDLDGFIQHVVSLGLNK
Experimental: as §1, with “After probe purification and MfeI digestion, probe integrity was identified using qPCR. Percent recovery of probe is reported as a heat map (n=8) (specific recovery figures and percent error can be found in FIG. 16). *=p<0.05 vs. no chemical control.” left out

T1 sequence (Q53685 other isoform, or with tags, fused parts or gaps P55A/R82V/R83E/T84P): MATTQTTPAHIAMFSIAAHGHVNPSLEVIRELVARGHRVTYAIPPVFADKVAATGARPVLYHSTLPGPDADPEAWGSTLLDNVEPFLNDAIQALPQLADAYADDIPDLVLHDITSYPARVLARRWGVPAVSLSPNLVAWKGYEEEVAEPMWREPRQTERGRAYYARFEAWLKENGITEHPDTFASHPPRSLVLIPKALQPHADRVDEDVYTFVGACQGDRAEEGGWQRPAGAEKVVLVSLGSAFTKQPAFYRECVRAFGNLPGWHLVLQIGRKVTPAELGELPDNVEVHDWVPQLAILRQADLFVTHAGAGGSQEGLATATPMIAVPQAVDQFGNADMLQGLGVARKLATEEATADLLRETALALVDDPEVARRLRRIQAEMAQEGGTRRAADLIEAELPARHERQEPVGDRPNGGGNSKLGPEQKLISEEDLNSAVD

Row | Structure (SMILES) | recovery of intact probe DNA (OleD [1]) [%] | OleD substrate quality reported in previous studies (OleD [2]) | further results
1 | O=C(O)c1cc2ccc(O)cc2oc1=O [V, 7-hydroxycoumarin-3-carboxylic acid] | 97 | very weak substrates | –
2 | O=c1c(O)c(-c2ccccc2)oc2ccccc12 [VI, 3-hydroxyflavone] | 42 | – | –
3 | O=c1cc(-c2ccccc2)oc2cccc(O)c12 [VIII, 5-hydroxyflavone] | – | – | significant loss in protection of the DNA probe (OleD [1]): not the case
4 | O=c1cc(-c2ccc(O)cc2)oc2cc(O)cc(O)c12 [II, apigenin] | 42 | slower rate or with less efficiency than with (I) | identification as OleD substrate by LCMS (OleD [3]): identified the chemicals as substrates
5 | O=C(O)Cc1cc(=O)oc2cc(O)ccc12 [IV, 7-hydroxycoumarin-4-acetic acid] | 82 | very weak substrates | –
6 | Cc1cc(=O)oc2cc(O)ccc12 [III, 4-methylumbelliferone] | 60 | slower rate or with less efficiency than with (I) | identification as OleD substrate by LCMS (OleD [3]): identified the chemicals as substrates
7 | O=C(O)c1ccc(O)c(O)c1 [XII, 3,4-dihydroxybenzoic acid] | – | – | recovery of probe (GT05 (UGT72B1 (Q9M156))): 40%; recovery of probe [4]: 30%
8 | O=c1cc(-c2ccc(O)cc2)oc2ccccc12 [VII, 4-hydroxyflavone] | – | – | significant loss in protection of the DNA probe (OleD [1]): not the case
9 | O=c1cc(-c2ccccc2)oc2cc(O)ccc12 [IX, 7-hydroxyflavone] | 39 | – | –
10 | O=C(O)c1cccc(O)c1 [X, 3-hydroxybenzoic acid] | – | – | recovery of probe (GT05 (UGT72B1 (Q9M156))): 33%
